Measured values reported in PubChem BioAssay (NCI).
Values joined by “and” are separate entries in the source; they are usually repeats but may differ in a detail not shown here. Equal values may be shown once.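 Following 48 hours of exposure in 96-well plates, responses at five concentrations were used to interpolate endpoints linearly. GI50: concentration for 50% inhibition of growth. Definition used: TGI = concentration required for complete inhibition of growth.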

Tests used:
Assay in all cases: NCI anticancer screen, dose series, 48 h
A498 renal = tested on: A498 renal
HCT-116 colon = tested on: HCT-116 colon
IGROV1 ovarian = tested on: IGROV1 ovarian
K-562 leukemia = tested on: K-562 leukemia
M14 melanoma = tested on: M14 melanoma
NCI-H23 lung = tested on: NCI-H23 lung
OVCAR-8 ovarian = tested on: OVCAR-8 ovarian
RXF 393 renal = tested on: RXF 393 renal
SNB-19 CNS = tested on: SNB-19 CNS
SR leukemia = tested on: SR leukemia

COc1ccc(N=C(SSC(=Nc2ccc(OC)cc2)c2ccc([N+](=O)[O-])o2)c2ccc([N+](=O)[O-])o2)cc1
TGI (A498 renal): 25.8 µM
TGI (HCT-116 colon): 3.49 µM
TGI (IGROV1 ovarian): 4.2 µM
TGI (K-562 leukemia): > 25.3 µM
TGI (M14 melanoma): 4.98 µM
TGI (NCI-H23 lung): 3.2 µM
TGI (OVCAR-8 ovarian): 7.71 µM
TGI (RXF 393 renal): 2.92 µM
TGI (SNB-19 CNS): 3.26 µM
TGI (SR leukemia): > 21.7 µM

CCCCSC1=N/C(=C\c2ccccc2O)C(Cl)=N1
TGI (A498 renal): > 100 µM
TGI (HCT-116 colon): > 100 µM
TGI (IGROV1 ovarian): > 100 µM
TGI (M14 melanoma): > 100 µM
TGI (NCI-H23 lung): > 100 µM
TGI (OVCAR-8 ovarian): > 100 µM
TGI (RXF 393 renal): > 100 µM
TGI (SNB-19 CNS): > 100 µM

COc1ccc2c(C=O)c3n(c(=O)c2c1OC)CCc1cc2c(cc1-3)OCO2
TGI (A498 renal): > 100 µM
TGI (HCT-116 colon): > 100 µM
TGI (IGROV1 ovarian): > 100 µM
TGI (M14 melanoma): > 100 µM
TGI (NCI-H23 lung): > 100 µM
TGI (OVCAR-8 ovarian): > 100 µM
TGI (RXF 393 renal): 11.3 µM
TGI (SNB-19 CNS): > 100 µM

Nc1ccc2ncc(Nc3ccc(Cl)c(Cl)c3)nc2c1
TGI (HCT-116 colon): 57.3 µM
TGI (K-562 leukemia): > 100 µM
TGI (M14 melanoma): 94.1 µM
TGI (NCI-H23 lung): 47.9 µM
TGI (OVCAR-8 ovarian): 83.3 µM
TGI (RXF 393 renal): 55.2 µM
TGI (SNB-19 CNS): 81.4 µM
TGI (SR leukemia): > 100 µM

Cc1[nH]n(C(=O)c2ccc(Cl)cc2)c(=O)c1/C=C1\C(O)=CC(=O)c2ccccc21
TGI (A498 renal): > 100 µM
TGI (HCT-116 colon): > 100 µM
TGI (IGROV1 ovarian): > 100 µM
TGI (K-562 leukemia): > 100 µM
TGI (M14 melanoma): > 100 µM
TGI (NCI-H23 lung): > 100 µM
TGI (OVCAR-8 ovarian): > 100 µM
TGI (RXF 393 renal): > 100 µM
TGI (SNB-19 CNS): > 100 µM

COc1ccc(OC)c2c(Nc3ccc(S(=O)(=O)O)c4cc(S(=O)(=O)O)cc(S(=O)(=O)O)c34)cc(C)nc12
TGI (A498 renal): > 100 µM
TGI (HCT-116 colon): > 100 µM
TGI (IGROV1 ovarian): > 100 µM
TGI (K-562 leukemia): > 100 µM
TGI (M14 melanoma): > 100 µM
TGI (NCI-H23 lung): > 100 µM
TGI (OVCAR-8 ovarian): > 100 µM
TGI (RXF 393 renal): > 100 µM

Nn1c(=S)[nH]nc(/C=C/c2c(O)ccc3ccccc23)c1=O
TGI (A498 renal): 69.9 µM
TGI (HCT-116 colon): 12.5 µM
TGI (IGROV1 ovarian): 5.56 µM
TGI (K-562 leukemia): > 100 µM
TGI (M14 melanoma): 41.6 µM
TGI (NCI-H23 lung): 11 µM
TGI (OVCAR-8 ovarian): 4.81 µM
TGI (SNB-19 CNS): > 100 µM
TGI (SR leukemia): 87.1 µM

CC1=C(C(=O)OC(C)(C)C)C(c2ccc([N+](=O)[O-])cc2)C(C(=O)OC(C)(C)C)=C(C)N1
TGI (A498 renal): 37.6 µM
TGI (HCT-116 colon): 36.4 µM
TGI (IGROV1 ovarian): 32.2 µM
TGI (K-562 leukemia): 54 µM
TGI (M14 melanoma): 47.6 µM
TGI (NCI-H23 lung): 45.3 µM
TGI (OVCAR-8 ovarian): 42.3 µM
TGI (RXF 393 renal): 36.2 µM
TGI (SNB-19 CNS): 75.8 µM

CO/C(N)=C(\C#N)N=Cc1cccs1
TGI (A498 renal): > 100 µM
TGI (HCT-116 colon): > 100 µM
TGI (IGROV1 ovarian): > 100 µM
TGI (K-562 leukemia): > 100 µM
TGI (M14 melanoma): > 100 µM
TGI (NCI-H23 lung): > 100 µM
TGI (OVCAR-8 ovarian): > 100 µM
TGI (RXF 393 renal): > 100 µM
TGI (SNB-19 CNS): > 100 µM

COC(=O)c1ccccc1NCc1cc(O)ccc1O
TGI (A498 renal): > 89.2 µM
TGI (HCT-116 colon): 35.2 µM
TGI (IGROV1 ovarian): > 63.4 µM
TGI (K-562 leukemia): > 59 µM
TGI (M14 melanoma): 17.1 µM
TGI (NCI-H23 lung): > 68.5 µM
TGI (OVCAR-8 ovarian): 34.5 µM
TGI (RXF 393 renal): 30.3 µM
TGI (SNB-19 CNS): > 74.1 µM

CCN(CCCl)c1ccc(NC(=O)c2cc(C(=O)NCCN(C)C)cc(C(=O)Nc3ccc(N(CC)CCCl)cc3)c2)cc1
TGI (A498 renal): 43.1 µM
TGI (HCT-116 colon): 22.3 µM
TGI (IGROV1 ovarian): 29.1 µM
TGI (M14 melanoma): 28.2 µM
TGI (NCI-H23 lung): 23.5 µM
TGI (OVCAR-8 ovarian): 25.2 µM
TGI (RXF 393 renal): 30.8 µM
TGI (SNB-19 CNS): 19.9 µM
TGI (SR leukemia): > 100 µM

Clc1cc2ncn(C3CCCO3)c2cc1Cl (stereo not drawn)
TGI (HCT-116 colon): > 100 µM
TGI (IGROV1 ovarian): 69.5 µM
TGI (K-562 leukemia): > 100 µM
TGI (M14 melanoma): > 100 µM
TGI (NCI-H23 lung): > 100 µM
TGI (OVCAR-8 ovarian): > 100 µM
TGI (RXF 393 renal): > 100 µM
TGI (SNB-19 CNS): > 100 µM
TGI (SR leukemia): > 100 µM

N/N=C(\N)SCc1ccc(N=C=S)cc1
TGI (A498 renal): > 100 µM
TGI (HCT-116 colon): > 100 µM
TGI (IGROV1 ovarian): > 100 µM
TGI (K-562 leukemia): > 100 µM
TGI (NCI-H23 lung): > 100 µM
TGI (OVCAR-8 ovarian): > 100 µM
TGI (RXF 393 renal): > 100 µM
TGI (SNB-19 CNS): > 100 µM
TGI (SR leukemia): > 100 µM

O=CC12CCCN1CCC2
TGI (HCT-116 colon): > 100 µM
TGI (IGROV1 ovarian): > 100 µM
TGI (K-562 leukemia): > 100 µM
TGI (M14 melanoma): > 100 µM
TGI (NCI-H23 lung): > 100 µM
TGI (RXF 393 renal): > 100 µM
TGI (SNB-19 CNS): > 100 µM
TGI (SR leukemia): > 100 µM

CCc1nc2cc(F)ccc2[nH]c1=O
TGI (A498 renal): > 100 µM
TGI (HCT-116 colon): > 100 µM
TGI (K-562 leukemia): > 100 µM
TGI (M14 melanoma): > 100 µM
TGI (NCI-H23 lung): > 100 µM
TGI (OVCAR-8 ovarian): > 100 µM
TGI (RXF 393 renal): > 100 µM
TGI (SNB-19 CNS): > 100 µM

FC(F)(Sc1nc2ccccc2[nH]1)c1nc2ccccc2o1
TGI (A498 renal): > 100 µM
TGI (HCT-116 colon): > 100 µM
TGI (IGROV1 ovarian): > 100 µM
TGI (K-562 leukemia): > 100 µM
TGI (M14 melanoma): > 100 µM
TGI (NCI-H23 lung): > 100 µM
TGI (OVCAR-8 ovarian): > 100 µM
TGI (RXF 393 renal): > 100 µM
TGI (SR leukemia): > 100 µM

NNC(=O)COc1nc(-c2cccs2)nc2ccc(I)cc12
TGI (HCT-116 colon): 36.3 µM
TGI (IGROV1 ovarian): 56.3 µM
GI50 (K-562 leukemia): 37 µM
TGI (K-562 leukemia): > 100 µM
TGI (M14 melanoma): 58.3 µM
TGI (NCI-H23 lung): 41.2 µM
TGI (OVCAR-8 ovarian): > 100 µM
TGI (RXF 393 renal): > 100 µM
TGI (SNB-19 CNS): 39.2 µM
TGI (SR leukemia): 55.6 µM

Cc1ccc(C(=O)C2CC3(CCC2(O)c2ccc(C)cc2)CC(=O)Nc2ccccc2C3=O)cc1 (stereo not drawn)
TGI (A498 renal): > 100 µM
TGI (HCT-116 colon): > 100 µM
TGI (IGROV1 ovarian): > 100 µM
TGI (M14 melanoma): > 100 µM
TGI (NCI-H23 lung): > 100 µM
TGI (OVCAR-8 ovarian): > 100 µM
TGI (RXF 393 renal): > 100 µM
TGI (SNB-19 CNS): > 100 µM
TGI (SR leukemia): > 100 µM

N#Cc1c(N)n(-c2nc3ccccc3s2)c(=O)c2cc([N+](=O)[O-])ccc12
TGI (A498 renal): 98.1 µM
TGI (HCT-116 colon): > 41.9 µM
TGI (K-562 leukemia): 38.6 µM
TGI (M14 melanoma): > 55 µM
TGI (NCI-H23 lung): 36.5 µM
TGI (OVCAR-8 ovarian): 43.9 µM
TGI (RXF 393 renal): 41.9 µM
TGI (SNB-19 CNS): > 77.1 µM
TGI (SR leukemia): 56.2 µM

CCCCCCCCCCCC1=C(O)C(=O)C=C(O)C1=O
TGI (A498 renal): 20.9 µM
TGI (HCT-116 colon): 30.1 µM
TGI (IGROV1 ovarian): 20.5 µM
TGI (K-562 leukemia): 75.9 µM
TGI (NCI-H23 lung): 29.7 µM
TGI (OVCAR-8 ovarian): 4.7 µM
TGI (RXF 393 renal): 54.6 µM
TGI (SNB-19 CNS): 25.7 µM

COC1=C(C)C(=O)C2=C(C1=O)C1C3CC4=C(C(=O)C(OC)=C(C)C4=O)C(CNC(=O)C(C)=O)N3C(C#N)C(C2)N1C (stereo not drawn)
GI50 (A498 renal): 63.4 nM
TGI (IGROV1 ovarian): 0.199 µM and 0.0948 µM
TGI (RXF 393 renal): 0.0161 µM
TGI (SNB-19 CNS): 1.45 µM and 0.958 µM

O=C1Cc2c([nH]c3c(Br)cccc23)-c2ccccc2N1
TGI (A498 renal): > 100 µM
TGI (IGROV1 ovarian): > 100 µM
TGI (K-562 leukemia): 56.5 µM
TGI (M14 melanoma): > 100 µM
TGI (NCI-H23 lung): > 100 µM
TGI (OVCAR-8 ovarian): > 100 µM
TGI (SNB-19 CNS): > 100 µM
TGI (SR leukemia): 55.3 µM

CCOC(=O)C1(NC(=O)OC(C)(C)C)CCc2[nH]oc(=O)c2C1 (stereo not drawn)
TGI (A498 renal): > 100 µM
TGI (HCT-116 colon): > 100 µM
TGI (IGROV1 ovarian): > 100 µM
TGI (K-562 leukemia): > 100 µM
TGI (M14 melanoma): > 100 µM
TGI (NCI-H23 lung): > 100 µM
TGI (OVCAR-8 ovarian): > 100 µM
TGI (SNB-19 CNS): > 100 µM

N=c1sc(N2CCOCC2)nn1CC(=O)c1ccccc1
TGI (HCT-116 colon): > 100 µM
TGI (IGROV1 ovarian): > 100 µM
TGI (K-562 leukemia): > 100 µM
TGI (M14 melanoma): > 100 µM
TGI (NCI-H23 lung): > 100 µM
TGI (OVCAR-8 ovarian): > 100 µM
TGI (RXF 393 renal): > 100 µM
TGI (SNB-19 CNS): > 100 µM
